Laboratory results as given in patent publication US8614223B2, “Pyrimidine hydroxy amide compounds as protein deacetylase inhibitors and methods of use thereof” (Acetylon Pharmaceuticals, Inc., priority 2010, dated 2013).

What was measured:
HDAC2 = HDAC2 (Homo sapiens (Human), UniProt Q92769); test: HDAC enzyme assay, HDAC2; settings: for HDAC2 fold over HDAC6 IC50 (selectivity for HDAC6): ratio HDAC2/HDAC6; for IC50: read-out: HDAC2 IC50
HDAC6 = HDAC6 (Homo sapiens (Human), UniProt Q9UBN7); settings: read-out: HDAC6 IC50
HDAC1 = HDAC1 (Homo sapiens (Human), UniProt Q13547); test: HDAC enzyme assay, HDAC1; settings: for HDAC1 fold over HDAC6 IC50 (selectivity for HDAC6): ratio HDAC1/HDAC6; for IC50: read-out: HDAC1 IC50
HDAC3 = HDAC3 (Homo sapiens (Human), UniProt O15379); test: HDAC enzyme assay, HDAC3; settings: for HDAC3 fold over HDAC6 IC50 (selectivity for HDAC6): ratio HDAC3/HDAC6; for IC50: read-out: HDAC3 IC50
Chain of HDAC3 (O15379 whole entry): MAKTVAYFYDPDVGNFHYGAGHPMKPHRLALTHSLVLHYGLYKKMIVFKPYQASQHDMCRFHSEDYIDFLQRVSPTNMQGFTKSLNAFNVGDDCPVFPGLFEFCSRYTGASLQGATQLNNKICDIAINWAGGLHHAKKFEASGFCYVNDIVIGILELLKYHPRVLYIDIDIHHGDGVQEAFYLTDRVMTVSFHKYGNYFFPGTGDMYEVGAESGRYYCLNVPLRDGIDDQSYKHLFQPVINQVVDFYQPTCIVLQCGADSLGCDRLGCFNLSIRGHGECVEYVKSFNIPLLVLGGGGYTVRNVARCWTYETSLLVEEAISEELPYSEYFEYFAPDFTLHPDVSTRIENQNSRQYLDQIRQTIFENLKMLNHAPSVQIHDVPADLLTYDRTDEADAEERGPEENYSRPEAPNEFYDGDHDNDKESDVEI
Chain of HDAC3 (Q9Y618 395-489 partner): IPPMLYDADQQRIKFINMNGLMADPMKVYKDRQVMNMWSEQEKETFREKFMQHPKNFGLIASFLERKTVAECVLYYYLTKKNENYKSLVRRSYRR

Chain of HDAC6 (Q9UBN7 whole entry): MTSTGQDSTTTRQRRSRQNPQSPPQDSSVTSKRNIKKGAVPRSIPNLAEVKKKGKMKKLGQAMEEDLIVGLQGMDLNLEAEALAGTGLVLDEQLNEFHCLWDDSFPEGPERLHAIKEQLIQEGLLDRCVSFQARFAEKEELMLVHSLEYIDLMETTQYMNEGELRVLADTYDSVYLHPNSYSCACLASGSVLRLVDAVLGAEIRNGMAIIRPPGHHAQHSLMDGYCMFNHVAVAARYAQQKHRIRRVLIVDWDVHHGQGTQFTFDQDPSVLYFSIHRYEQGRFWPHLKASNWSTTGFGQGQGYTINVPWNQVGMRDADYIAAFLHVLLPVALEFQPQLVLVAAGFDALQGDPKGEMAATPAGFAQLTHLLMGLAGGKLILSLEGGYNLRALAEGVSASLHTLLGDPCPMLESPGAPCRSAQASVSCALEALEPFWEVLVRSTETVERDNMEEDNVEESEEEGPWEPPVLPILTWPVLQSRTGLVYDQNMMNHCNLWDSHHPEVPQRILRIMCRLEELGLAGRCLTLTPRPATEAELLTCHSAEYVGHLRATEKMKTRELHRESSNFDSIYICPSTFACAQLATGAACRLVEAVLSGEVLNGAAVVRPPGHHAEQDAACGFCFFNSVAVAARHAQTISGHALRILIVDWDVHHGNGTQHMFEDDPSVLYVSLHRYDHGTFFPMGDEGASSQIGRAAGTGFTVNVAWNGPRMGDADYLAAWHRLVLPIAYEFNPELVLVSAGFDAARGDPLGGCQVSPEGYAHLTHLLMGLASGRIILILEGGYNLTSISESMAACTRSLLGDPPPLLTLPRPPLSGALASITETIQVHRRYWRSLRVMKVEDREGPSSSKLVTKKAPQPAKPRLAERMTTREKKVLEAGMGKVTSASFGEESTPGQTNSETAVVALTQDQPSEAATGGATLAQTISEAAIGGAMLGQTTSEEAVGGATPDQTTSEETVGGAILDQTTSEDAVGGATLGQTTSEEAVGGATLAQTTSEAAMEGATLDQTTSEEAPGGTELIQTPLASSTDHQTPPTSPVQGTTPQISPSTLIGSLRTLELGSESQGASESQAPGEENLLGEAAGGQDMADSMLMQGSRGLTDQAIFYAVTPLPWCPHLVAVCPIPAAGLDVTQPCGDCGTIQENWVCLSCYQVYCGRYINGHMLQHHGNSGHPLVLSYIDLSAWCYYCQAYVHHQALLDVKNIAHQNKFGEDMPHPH
Chain of HDAC2 (Q92769 whole entry): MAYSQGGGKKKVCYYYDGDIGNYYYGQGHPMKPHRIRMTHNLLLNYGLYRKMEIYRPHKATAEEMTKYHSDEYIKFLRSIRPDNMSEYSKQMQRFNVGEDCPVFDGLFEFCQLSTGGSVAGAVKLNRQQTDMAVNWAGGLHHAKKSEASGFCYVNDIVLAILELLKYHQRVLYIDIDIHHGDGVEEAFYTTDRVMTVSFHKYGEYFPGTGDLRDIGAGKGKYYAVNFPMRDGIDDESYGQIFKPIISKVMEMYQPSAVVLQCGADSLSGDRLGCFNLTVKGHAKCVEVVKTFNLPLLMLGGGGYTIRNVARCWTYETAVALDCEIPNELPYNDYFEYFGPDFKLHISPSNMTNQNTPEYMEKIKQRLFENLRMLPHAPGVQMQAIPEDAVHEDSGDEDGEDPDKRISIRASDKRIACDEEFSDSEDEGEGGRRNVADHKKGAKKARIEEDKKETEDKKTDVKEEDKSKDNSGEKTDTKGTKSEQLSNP
Chain of HDAC1 (Q13547 whole entry): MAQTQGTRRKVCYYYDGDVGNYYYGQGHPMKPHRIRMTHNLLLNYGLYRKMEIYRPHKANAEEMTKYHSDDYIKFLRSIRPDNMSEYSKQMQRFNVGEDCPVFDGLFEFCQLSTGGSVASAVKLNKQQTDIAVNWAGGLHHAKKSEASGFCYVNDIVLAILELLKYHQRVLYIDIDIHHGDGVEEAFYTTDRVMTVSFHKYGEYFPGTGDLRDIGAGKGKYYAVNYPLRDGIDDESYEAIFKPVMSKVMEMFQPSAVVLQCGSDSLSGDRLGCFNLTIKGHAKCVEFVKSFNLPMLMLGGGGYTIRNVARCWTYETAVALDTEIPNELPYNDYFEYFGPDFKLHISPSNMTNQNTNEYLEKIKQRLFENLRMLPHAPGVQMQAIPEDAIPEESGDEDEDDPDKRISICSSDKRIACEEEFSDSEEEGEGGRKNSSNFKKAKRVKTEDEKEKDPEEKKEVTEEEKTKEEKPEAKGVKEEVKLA

Compound | HDAC2 fold over HDAC6 IC50 (selectivity for HDAC6) (HDAC2) | IC50 (HDAC2) [nM] | IC50 (HDAC6) [nM] | HDAC1 fold over HDAC6 IC50 (selectivity for HDAC6) (HDAC1) | IC50 (HDAC1) [nM] | HDAC3 fold over HDAC6 IC50 (selectivity for HDAC6) (HDAC3) | IC50 (HDAC3) [nM]
Cc1cc(F)cc(Nc2ncc(C(=O)NO)cn2)c1 [Compound 24] | (50.9x) | 261 | 5 | (26x) | 133 | (37.6x) | 193
O=C(NO)c1cnc(NC2(c3ccc(C(F)(F)F)cc3)CC2)nc1 [Compound 135] | (17.7x) | 118 | 7 | (22.4x) | 149 | (51.8x) | 344
O=C(NO)c1cnc(NC2(c3ccco3)CC2)nc1 [Compound 99] | (75.6x) | 320 | 4 | (47.3x) | 200 | (81.5x) | 345
Cc1cc(C(C)(C)Nc2ncc(C(=O)NO)cn2)ccc1F [Compound 78] | (153.6x) | 669 | 4 | (137.3x) | 598 | (304.6x) | 1330
O=C(NO)c1cnc(NC2(c3cc(C(F)(F)F)cc(C(F)(F)F)c3)CC2)nc1 [Compound 145] | (23.5x) | 135 | 6 | (18.1x) | 104 | (66.6x) | 384
O=C(NO)c1cnc(Nc2cccc(N3CCOCC3)c2)nc1 [Compound 29] | (106x) | 808 | 8 | (60.9x) | 464 | (68.2x) | 520
O=C(NO)c1cnc(NC2(c3ccccc3)CCCCC2)nc1 [Compound 84] | (403.4x) | 2970 | 7 | (302.2x) | 2230 | (613x) | 4520
O=C(NO)c1cnc(NC2(c3cccc(F)c3)CCOCC2)nc1 [Compound 149] | (78x) | 330 | 4 | (80.1x) | 339 | (312.9x) | 1320
O=C(NO)c1cnc(Nc2cc(C(F)(F)F)cc(C(F)(F)F)c2)nc1 [Compound 15] | (100.8x) | 1390 | 14 | (102.2x) | 1410 | (134.3x) | 1850
COc1ccccc1C1(Nc2ncc(C(=O)NO)cn2)CC1 [Compound 133] | (152.9x) | 483 | 3 | (188x) | 594 | (229.8x) | 727
O=C(NO)c1cnc(NCc2ccc(F)c(Cl)c2)nc1 [Compound 53] | (19.2x) | 30 | 2 | (14.9x) | 24 | (27.2x) | 43
O=C(NO)c1cnc(NCc2cccs2)nc1 [Compound 105] | (92.1x) | 361 | 4 | (54.5x) | 214 | (92x) | 361
CC(Nc1ncc(C(=O)NO)cn1)(c1ccc(F)cc1)c1ccc(F)cc1 [Compound 96] | (286.2x) | 2460 | 9 | (271.8x) | 2340 | (662.8x) | 5710
O=C(NO)c1cnc(NC2(c3ccc(F)cc3)CCCCC2)nc1 [Compound 100] | (504.7x) | 4760 | 9 | (339.9x) | 3210 | (1428.4x) | 13500
COc1cc(OC)cc(C2(Nc3ncc(C(=O)NO)cn3)CC2)c1 [Compound 129] | (15.4x) | 52 | 3 | (12.7x) | 43 | (36.6x) | 124
COc1cc(Nc2ncc(C(=O)NO)cn2)cc(C(F)(F)F)c1 [Compound 21] | (100.3x) | 526 | 5 | (46x) | 241 | (92.2x) | 484
Cc1ccc(C2(Nc3ncc(C(=O)NO)cn3)CC2)cc1 [Compound 93] | (34.7x) | 107 | 3 | (25.9x) | 80 | (51x) | 157
CC(C)(Nc1ncc(C(=O)NO)cn1)c1ccc(F)cc1 [Compound 68] | (362.4x) | 1080 | 3 | (254.8x) | 761 | (495.3x) | 1480
O=C(NO)c1cnc(NC2(c3cccc(OC(F)(F)F)c3)CC2)nc1 [Compound 125] | (9x) | 19 | 2 | (8.7x) | 18 | (27.1x) | 57

The next lines start with the values.

HDAC2 fold over HDAC6 IC50 (selectivity for HDAC6) (HDAC2) | IC50 (HDAC2) [nM] | IC50 (HDAC6) [nM] | HDAC1 fold over HDAC6 IC50 (selectivity for HDAC6) (HDAC1) | IC50 (HDAC1) [nM] | HDAC3 fold over HDAC6 IC50 (selectivity for HDAC6) (HDAC3) | IC50 (HDAC3) [nM] | Compound
(24.1x) | 1170 | 49 | (16.7x) | 813 | (24x) | 1170 | O=C(NO)c1cnc(NC2CCOCC2)nc1 [Compound 104]
(68.4x) | 330 | 5 | (66.1x) | 320 | (367.7x) | 1780 | O=C(NO)c1cnc(NC2(c3ccc(F)cc3)CCOCC2)nc1 [Compound 150]
(26x) | 395 | 15 | (16.3x) | 247 | (27.8x) | 421 | COc1ccc(Nc2ncc(C(=O)NO)cn2)cc1 [Compound 5]
(34x) | 236 | 7 | (37.9x) | 262 | (176x) | 1220 | O=C(NO)c1cnc(NC2(c3cc(F)cc(F)c3)CCOCC2)nc1 [Compound 155]
(25.4x) | 127 | 5 | (17.8x) | 89 | (29.8x) | 149 | O=C(NO)c1cnc(NCc2ccc(C(F)(F)F)cc2)nc1 [Compound 37]
(130.2x) | 288 | 2 | (72.3x) | 160 | (169.4x) | 374 | O=C(NO)c1cnc(NC2(c3ccccc3C(F)(F)F)CC2)nc1 [Compound 91]
(4x) | 23 | 6 | (3x) | 17 | (11x) | 64 | Cc1cc(C2(Nc3ncc(C(=O)NO)cn3)CC2)ccc1F [Compound 142]
(427.2x) | 8010 | 19 | (306.9x) | 5750 | (656.2x) | 12300 | Cc1cc(F)ccc1C(C)(C)Nc1ncc(C(=O)NO)cn1 [Compound 72]
(3.9x) | 9 | 2 | (3.2x) | 7 | (9.8x) | 22 | O=C(NO)c1cnc(NC2(c3cc(C(F)(F)F)ccc3F)CC2)nc1 [Compound 126]
(98.9x) | 2100 | 21 | (64.4x) | 1370 | (73.7x) | 1570 | Cc1cccc(C)c1CNc1ncc(C(=O)NO)cn1 [Compound 54]
(55x) | 624 | 11 | (41.2x) | 468 | (33.6x) | 382 | O=C(NO)c1cnc(NCc2c(CO)cccc2CO)nc1 [Compound 51]
